Laboratory results published in article PMC5698301, “Dual Coating of Liposomes as Encapsulating Matrix of Antimicrobial Peptides: Development and Characterization” (Frontiers in Chemistry, 2017).
Peptide text beside a SMILES is read from it.

Tests used:
[1] = tested on: pepsin; settings: in all liposomal formulations; SGF with pepsin 3.2 mg/mL, 2 h, 37 ± 0.5°C, HPLC
Protocol: The dissolution experiment was performed according to Liu et al. ([2012]) with some modifications. Different samples were placed in a simulated gastric fluid for 2 h (SGF: 0.2 g of NaCl dissolved in 0.7 mL of HCl and filled up to 100 ml with distilled water then pepsin was added at a concentration of 3.2 mg/mL). Then, the dissolution was performed in simulated intestinal fluid (SIF: 6.8 g of potassium phosphate monobasic sodium hydroxide with a pH adjusted to 7.4 with 2N sodium hydroxide to a volume of 100 mL and a concentration of 0.2 mg/mL bovine bile extract), the pH was adjusted to 7.4. Pancreatin was added at a concentration of 20 mg/mL (equivalent to a protease activity of 500 U/mL). The dissolution was performed for 4 h at a temperature of 37 ± 0.5°C with stirring at 140 rpm. To perform the experiment 3 ml of the individual suspensions of liposomes was added to 3 mL of gastric fluid and samples of 500 μL of medium are removed at intervals of 1 h for the gastric fluid portion and at 0, 15, 30, 60, 120, 240 min during the intestinal dissolution. The contents MccJ25 samples were determined by HPLC. […] The blank was performed in similar conditions with a solution of non-encapsulated MccJ25.

[2] = tested on: S. enteritidis; assay: Microtitration assay (critical dilution), activity in AU; assay type: cell-based, Salmonella enteritidis
Protocol: The second activity test was carried out using the same strain (S. enteritidis) in polystyrene 96-well micro-assay plates (Microtest, Becton–Dickinson Labware, MD, USA) as described by Ennaas et al. ([2016]). Briefly, fractions were added to microplates and diluted 2-folds with LB broth. Then, wells were seeded with ~1 × 10^4 CFU of strain per well using log-phase culture diluted in LB to 0.5–1.0 × 10^6 CFU ml^−1. The plates were incubated for 18 h at 37°C. After incubation, OD at 595 nm was measured using an Infinite® F200 PRO photometer (Tecan US Inc., Durham, NC). Antimicrobial activity results were expressed as arbitrary units per milliliter (AU ml^−1) that calculated as follows:
AU ml^−1 = (1,000/100) × 2 n, where n = number of inhibited wells.

Row | Structure (SMILES) | Resistance of MccJ25 to gastric digestion [1] | Specific activity (AU/mg) ([2]; activity per mg protein (Lowry method)) | Inhibitory activity (AU/ml) ([2]; microtitration assay, S. enteritidis, 2-fold dilutions in LB, 18 h at 37°C, OD 595 nm)
1 | CC[C@H](C)[C@H](NC(=O)CNC(=O)[C@@H](NC(=O)[C@H](Cc1ccccc1)NC(=O)[C@H](Cc1ccc(O)cc1)NC(=O)[C@@H]1CCC(=O)NCC(=O)NCC(=O)N[C@@H](C)C(=O)NCC(=O)N[C@@H](Cc2cnc[nH]2)C(=O)N[C@@H](C(C)C)C(=O)N2CCC[C@H]2C(=O)N1)C(C)C)C(=O)NCC(=O)N[C@H](C(=O)N1CCC[C@H]1C(=O)N[C@H](C(=O)N[C@@H](CO)C(=O)N[C@@H](Cc1ccccc1)C(=O)N[C@@H](Cc1ccc(O)cc1)C(=O)NCC(=O)O)[C@@H](C)CC)[C@@H](C)O [MccJ25, microcin J25] (HELM PEPTIDE1{G.G.A.G.H.V.P.E.Y.F.V.G.I.G.T.P.I.S.F.Y.G}$PEPTIDE1,PEPTIDE1,1:R1-8:R3$$$V2.0) | resisted gastric digestion | – | –
2 | CC[C@H](C)[C@H](NC(=O)CNC(=O)[C@@H](NC(=O)[C@H](Cc1ccccc1)NC(=O)[C@H](Cc1ccc(O)cc1)NC(=O)[C@@H]1CCC(=O)NCC(=O)NCC(=O)N[C@@H](C)C(=O)NCC(=O)N[C@@H](Cc2c[nH]cn2)C(=O)N[C@@H](C(C)C)C(=O)N2CCC[C@H]2C(=O)N1)C(C)C)C(=O)NCC(=O)N[C@H](C(=O)N1CCC[C@H]1C(=O)N[C@H](C(=O)N[C@@H](CO)C(=O)N[C@@H](Cc1ccccc1)C(=O)N[C@@H](Cc1ccc(O)cc1)C(=O)NCC(=O)O)[C@@H](C)CC)[C@@H](C)O [MccJ25, microcin J25] (HELM PEPTIDE1{G.G.A.G.H.V.P.E.Y.F.V.G.I.G.T.P.I.S.F.Y.G}$PEPTIDE1,PEPTIDE1,1:R1-8:R3$$$V2.0; C-terminus assumed; bridges inferred) | – | 181,352 AU/mg | 524,288 AU/ml
